Data reported in PMC2825141 (Journal of medicinal chemistry, 2009).

Experiments:
G9a [1] = target: T1, G9a (Homo sapiens, UniProt Q96KQ7); assay: DSF stabilization of G9a; format: binding; settings: compared to 2a
T1 sequence (Q96KQ7 1-1210): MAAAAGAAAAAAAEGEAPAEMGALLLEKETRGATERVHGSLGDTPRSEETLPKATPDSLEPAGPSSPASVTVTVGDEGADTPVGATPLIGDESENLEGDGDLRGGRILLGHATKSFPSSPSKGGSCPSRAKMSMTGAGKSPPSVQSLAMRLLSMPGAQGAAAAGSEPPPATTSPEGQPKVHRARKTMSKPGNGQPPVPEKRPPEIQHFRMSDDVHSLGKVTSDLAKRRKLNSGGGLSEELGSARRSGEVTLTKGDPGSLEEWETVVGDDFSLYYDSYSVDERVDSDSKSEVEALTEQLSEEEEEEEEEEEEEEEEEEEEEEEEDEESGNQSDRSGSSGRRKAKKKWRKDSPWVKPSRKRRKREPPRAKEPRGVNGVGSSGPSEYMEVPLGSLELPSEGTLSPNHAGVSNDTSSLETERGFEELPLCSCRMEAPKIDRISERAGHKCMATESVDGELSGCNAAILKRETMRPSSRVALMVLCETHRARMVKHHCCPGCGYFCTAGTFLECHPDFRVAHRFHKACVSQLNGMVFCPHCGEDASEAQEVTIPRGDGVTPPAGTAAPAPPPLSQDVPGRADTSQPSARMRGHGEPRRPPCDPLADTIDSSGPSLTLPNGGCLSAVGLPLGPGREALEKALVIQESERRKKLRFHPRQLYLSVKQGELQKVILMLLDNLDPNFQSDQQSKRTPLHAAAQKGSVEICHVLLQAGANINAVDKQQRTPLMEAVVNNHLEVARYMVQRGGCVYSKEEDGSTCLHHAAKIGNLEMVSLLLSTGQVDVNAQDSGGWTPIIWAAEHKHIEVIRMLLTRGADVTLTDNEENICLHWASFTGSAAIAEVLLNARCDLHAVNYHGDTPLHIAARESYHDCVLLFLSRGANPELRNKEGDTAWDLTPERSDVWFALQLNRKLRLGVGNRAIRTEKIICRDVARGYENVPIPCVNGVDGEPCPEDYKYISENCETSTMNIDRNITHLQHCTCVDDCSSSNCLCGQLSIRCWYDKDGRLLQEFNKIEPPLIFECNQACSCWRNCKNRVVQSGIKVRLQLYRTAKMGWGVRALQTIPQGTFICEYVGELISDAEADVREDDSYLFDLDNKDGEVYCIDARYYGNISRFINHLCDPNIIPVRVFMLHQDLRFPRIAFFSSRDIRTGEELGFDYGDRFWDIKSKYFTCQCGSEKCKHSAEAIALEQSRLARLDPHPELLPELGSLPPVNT

G9a [2] = target: T1, G9a; assay: G9a FP assay; format: binding; settings: compared to 2a

Stabilization of G9a in DSF (G9a [1]): stabilized G9a better compared to 2a
Compound: COc1cc2c(NC3CCN(C)CC3)nc(N3CCCN(C)CC3)nc2cc1OCCCN(C)C [Compound 8]
Displacement of fluorescein labeled 15-mer H3 peptide (1–15) (G9a [2]): displaced fluorescein labeled 15-mer H3 peptide (1–15) better than 2a
